Laboratory results from article PMC3914206.

What was measured:
Format in all cases: binding
panel of 442 kinases [1] = molecular target: T1, panel of 442 kinases (Homo sapiens, UniProt Q5VT25); conditions: Compound Concentration 10 µM
T1 construct: purchased KINOMEscan
Text: (§1) We assessed the selectivity of members of this scaffold using the KINOMEscan methodology across a near comprehensive panel of 442 kinases [[18,27]].

panel of 442 kinases [2] = molecular target: T2, panel of 442 kinases (Homo sapiens, UniProt Q16620); conditions: kinase TRKB; compound concentration 10 µM
T2 construct: purchased KINOMEscan
Text: as §1

panel of 442 kinases [3] = molecular target: T3, panel of 442 kinases (Homo sapiens, UniProt Q9Y6E0); conditions: Compound Concentration 10 µM
T3 construct: purchased KINOMEscan
Text: as §1

T2 sequence (Q16620 32-822): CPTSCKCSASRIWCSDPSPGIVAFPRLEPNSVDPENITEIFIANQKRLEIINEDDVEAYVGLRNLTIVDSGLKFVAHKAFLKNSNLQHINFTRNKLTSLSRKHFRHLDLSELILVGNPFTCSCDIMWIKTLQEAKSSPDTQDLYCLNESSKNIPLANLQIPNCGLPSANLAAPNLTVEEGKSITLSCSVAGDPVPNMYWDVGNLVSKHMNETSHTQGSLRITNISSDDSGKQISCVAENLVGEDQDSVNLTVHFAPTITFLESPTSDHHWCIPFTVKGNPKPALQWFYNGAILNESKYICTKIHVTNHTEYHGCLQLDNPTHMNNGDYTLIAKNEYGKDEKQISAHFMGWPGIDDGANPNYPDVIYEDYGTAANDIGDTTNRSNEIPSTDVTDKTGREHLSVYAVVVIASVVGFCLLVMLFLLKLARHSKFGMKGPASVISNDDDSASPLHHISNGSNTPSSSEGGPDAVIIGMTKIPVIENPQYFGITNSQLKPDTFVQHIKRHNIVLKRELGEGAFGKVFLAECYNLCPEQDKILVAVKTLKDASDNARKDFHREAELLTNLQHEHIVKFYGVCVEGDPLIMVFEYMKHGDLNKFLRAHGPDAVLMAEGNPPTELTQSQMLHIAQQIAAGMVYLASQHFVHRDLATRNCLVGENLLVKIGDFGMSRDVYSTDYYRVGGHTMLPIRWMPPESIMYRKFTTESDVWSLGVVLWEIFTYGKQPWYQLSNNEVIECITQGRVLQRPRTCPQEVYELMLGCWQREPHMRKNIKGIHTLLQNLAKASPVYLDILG
T1 sequence (Q5VT25 whole entry): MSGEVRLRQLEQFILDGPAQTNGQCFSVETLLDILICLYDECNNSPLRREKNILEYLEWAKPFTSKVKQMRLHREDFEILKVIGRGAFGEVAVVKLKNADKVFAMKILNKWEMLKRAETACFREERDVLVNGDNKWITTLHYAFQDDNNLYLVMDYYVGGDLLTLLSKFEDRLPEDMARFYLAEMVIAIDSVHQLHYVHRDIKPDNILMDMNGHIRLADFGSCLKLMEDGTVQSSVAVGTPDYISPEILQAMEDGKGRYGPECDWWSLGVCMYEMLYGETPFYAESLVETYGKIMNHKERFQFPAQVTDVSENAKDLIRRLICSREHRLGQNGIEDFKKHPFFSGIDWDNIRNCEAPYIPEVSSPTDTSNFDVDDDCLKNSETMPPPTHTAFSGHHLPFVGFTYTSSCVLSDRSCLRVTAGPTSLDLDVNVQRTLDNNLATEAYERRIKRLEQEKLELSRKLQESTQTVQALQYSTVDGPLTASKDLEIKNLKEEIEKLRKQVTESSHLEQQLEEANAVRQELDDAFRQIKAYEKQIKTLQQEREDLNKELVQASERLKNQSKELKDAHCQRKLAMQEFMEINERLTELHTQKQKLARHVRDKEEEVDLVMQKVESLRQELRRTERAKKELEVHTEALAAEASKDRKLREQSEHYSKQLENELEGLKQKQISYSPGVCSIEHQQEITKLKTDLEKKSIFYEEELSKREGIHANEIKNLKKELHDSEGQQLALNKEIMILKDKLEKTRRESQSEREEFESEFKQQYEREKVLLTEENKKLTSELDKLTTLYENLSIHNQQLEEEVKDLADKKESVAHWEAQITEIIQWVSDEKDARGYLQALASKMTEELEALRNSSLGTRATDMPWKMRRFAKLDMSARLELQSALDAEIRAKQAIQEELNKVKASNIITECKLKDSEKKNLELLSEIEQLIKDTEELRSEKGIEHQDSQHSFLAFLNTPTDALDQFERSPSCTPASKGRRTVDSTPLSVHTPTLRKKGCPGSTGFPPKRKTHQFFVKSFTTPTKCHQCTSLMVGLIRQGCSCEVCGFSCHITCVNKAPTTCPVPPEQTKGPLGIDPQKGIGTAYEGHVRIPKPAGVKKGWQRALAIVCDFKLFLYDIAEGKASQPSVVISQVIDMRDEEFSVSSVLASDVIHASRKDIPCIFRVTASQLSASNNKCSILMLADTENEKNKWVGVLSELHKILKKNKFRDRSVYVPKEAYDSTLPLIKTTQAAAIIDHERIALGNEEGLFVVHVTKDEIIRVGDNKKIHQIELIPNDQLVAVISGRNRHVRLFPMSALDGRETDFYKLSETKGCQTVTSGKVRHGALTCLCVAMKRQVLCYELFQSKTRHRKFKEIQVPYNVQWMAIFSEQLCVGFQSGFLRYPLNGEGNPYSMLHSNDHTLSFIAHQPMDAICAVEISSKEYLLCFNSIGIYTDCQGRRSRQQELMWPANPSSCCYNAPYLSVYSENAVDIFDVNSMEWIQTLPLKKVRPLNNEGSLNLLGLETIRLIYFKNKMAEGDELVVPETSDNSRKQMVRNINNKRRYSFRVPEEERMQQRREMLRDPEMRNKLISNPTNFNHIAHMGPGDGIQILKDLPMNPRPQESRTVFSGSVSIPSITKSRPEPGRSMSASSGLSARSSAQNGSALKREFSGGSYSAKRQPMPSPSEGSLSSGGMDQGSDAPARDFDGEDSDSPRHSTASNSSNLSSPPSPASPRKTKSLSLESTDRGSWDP
T3 sequence (Q9Y6E0 whole entry): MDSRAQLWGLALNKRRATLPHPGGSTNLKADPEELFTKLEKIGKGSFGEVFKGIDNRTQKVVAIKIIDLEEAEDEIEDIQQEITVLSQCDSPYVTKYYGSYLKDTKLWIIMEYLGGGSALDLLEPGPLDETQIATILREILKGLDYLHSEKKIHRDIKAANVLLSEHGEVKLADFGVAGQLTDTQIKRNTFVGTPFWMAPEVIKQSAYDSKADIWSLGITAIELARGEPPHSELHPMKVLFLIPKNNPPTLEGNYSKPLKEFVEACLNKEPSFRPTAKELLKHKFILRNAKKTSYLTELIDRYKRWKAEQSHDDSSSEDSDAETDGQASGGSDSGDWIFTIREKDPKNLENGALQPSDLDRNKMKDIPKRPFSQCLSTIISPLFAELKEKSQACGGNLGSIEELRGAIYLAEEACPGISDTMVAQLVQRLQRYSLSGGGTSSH

SMILES	KINOMEscan: MRCKA (panel of 442 kinases [1])	% Ctrl, TRKB (panel of 442 kinases [2]) [% Ctrl]	KINOMEscan: MST3 (panel of 442 kinases [3])
CCOc1cc(C(=O)N2CCC(N3CCN(C)CC3)CC2)ccc1Nc1ncc2c(n1)N(C1CCCC1)c1ccccc1C(=O)N2C [Compound 26]	100	100	100
COc1cc(C(=O)N2CCC(N3CCN(C)CC3)CC2)ccc1Nc1ncc2c(n1)N(C1CCCC1)c1ccccc1C(=O)N2C [Compound 25, 11-cyclopentyl-2-((2-methoxy-4-(4-(4-methylpiperazin-1-yl)piperidine-1-carbonyl)phenyl)amino)-5-methyl-5H-benzo[e]pyrimido[5,4-b][1,4]diazepin-6(11H)-one]	100	83	88
COc1cc(C(=O)N2CCC(N3CCN(C)CC3)CC2)ccc1Nc1ncc2c(n1)N1CCc3cccc(c31)C(=O)N2C [Compound 24]	–	–	73
COc1cc(C(=O)N2CCC(N3CCN(C)CC3)CC2)ccc1Nc1ncc2c(n1)N(C)c1ccccc1C(=O)N2C [15 (LRRK2-IN-1)]	100	100	87
